Assay [1] deals with pp60src tyrosine protein kinase (Homo sapiens, UniProt P12931). In words: Inhibition of homologous protein kinase pp60src. Format: biochemical. Particulars: micromolar concentrations.
For assay [2], the system named is murine melanoma B16 F10 cells. In words: Time-lapse cell motility (scratch wound) assay. The class given is cell-based. Particulars: 250 nM plus UV 5 min. As to the method: To measure cell motility by digital image capture, an Olympus IMT-2 inverted phase contrast microscope (Olympus Microscopes, UK), fitted with a Fujitsu TC2-336P CCD camera (EOS Electronics AV Ltd, Barry, Wales) and surrounded by a perspex temperature-regulated jacket that was adjusted to 37° C. Cells were plated onto 3-cm^2 petri dishes such that a densely confluent monolayer was achieved within 24 or 48 h. Following treatment of cells with C10-DECA and UV, a ‘scratch wound’ was created by drawing a sterile micro-pipette tip along the monolayer using a ruler as a guide. Detached cells were removed by washing twice in growth medium before adding 2 ml fresh medium. […] The chamber was gassed with 10% CO2 in humidified air and was placed onto the stage of the microscope. A regular wound edge was chosen and digital images were collected every 30 min for 8 h onto a Power Mac 7100 using Adobe Premier software. The percentage of the capture window (determined as 726 μm×544 μm) that had been filled in by the movement of cells (normalized to the original wound edge) was determined with Optilab software and plotted against time.
A confluent monolayer of cells was washed twice with PBS and the indicated concentration of DECA analogue was added to the cells in serum-free medium. Cells were treated with or without the drug for 1 h at 37° C., 5% CO2, followed by washing with PBS. […]

The subject of assay [3] is murine melanoma B16 F10 cells. In words: Cell migration in transwell (Boyden chamber). The class given is cell-based. The settings on record: for inhibition of cell migration: 250 nM plus UV 5 min, initial 3 h post-treatment, Boyden chamber. The procedure: A 12-mm Costar transwell (Boyden chamber) having a 12-μm pore size was used to measure cell movement across a porous polycarbonate membrane. The bottom surface was coated with 35 μg Matrigel for 1 h at 37° C., 5% CO2. Cells were seeded into the upper chamber of the transwell at 10^5 cells/well and incubated at 37° C., 5% CO2. Following incubation for 3 h, the upper chamber was carefully wiped with a cotton swab in order to remove cells that remained on the upper membrane surface. Those cells that had migrated to the lower membrane surface were fixed and stained by the H+E Method (Fisher Diagnostics Leukostat). By use of a Nikon Diaphot-TMD inverted microscope at 400× magnification, eight fields of adherent cells were randomly counted in each well and numerically averaged. Each condition was conducted in triplicate and statistical significance was determined by ANOVA using SigmaStat software.
Inhibition of cell migration by 250 nM DECA analogues (C10-(control), C12-, and C14-DECA) was analyzed during the initial 3 h post-treatment by the use of Boyden chambers. Cells that had been treated with a DECA analogue plus UV were applied to the upper surface of the membrane whereupon they moved chemotactically through the membrane, and adhered to Matrigel, which had been coated onto the under surface of the membrane. Following the initial 3 h, the number of cells migrating to this lower surface was measured.
A confluent monolayer of cells was washed twice with PBS and the indicated concentration of DECA analogue was added to the cells in serum-free medium. Cells were treated with or without the drug for 1 h at 37° C., 5% CO2, followed by washing with PBS. In PBS and with the lids off, cells were irradiated with longwave UV light for 5-min (1200 μW/cm^2). Irradiation was carried out with a longwave UV lamp (American Ultraviolet Co., Murray Hill, N.J.) while the plate of cells were subjected to gentle shaking at room temperature. Following this treatment, the medium was removed and the cells were washed twice with PBS. […]

Assay [4] concerns the target protein kinase C (PKC) isoforms (e.g., α, β1). Particulars: several isoforms (e.g., α, β1); read-out: IC50 for PKC isoforms in vitro; cited from earlier work.
A further assay has as its target T1, Recombinant human PKCα (Homo sapiens, UniProt P17252).
T1 construct: purchased PanVera Corp., Madison, Wis
As to the kind of experiment: Assay of PKCα catalytic activity in vitro. Format: biochemical. The settings on record: for IC50: reversible binding conditions, average of two or more independent experiments (± s.d.), read-out: IC50 (analogue concentration producing 50% inhibition of PKCα activity); for fold stronger inhibitory potency compared with C6-DECA (1a): IC50 ratio versus 1a; for fold stronger inhibitory potency than 1c: IC50 ratio versus 1c (C10-DECA). As to the method: Assay of PKCα Catalytic Activity In Vitro
(§1) Recombinant human PKCα (>95% pure) (PanVera Corp., Madison, Wis.) was used for testing DECA analogues in vitro. Total PKCα catalytic activity (36 ng protein) and the indicated concentration of DECA analogue was measured in triplicate in the presence of activating cofactors (10 μg phosphatidylserine, 0.5 mM Ca^2+) by the transfer of ^32P from [γ-^32P]-ATP to the modified pseudosubstrate peptide (RFARKGSLRQKNV), as described elsewhere^1. For assay of partially purified B16 F10 cell lysates (25 μg/assay), PKC activity was taken as the difference in phosphotransferase activity measured in triplicate in the presence and absence of activating cofactors (10 μg phosphatidylserine, 0.5 mM Ca^2+) as previously described^2.

In assay [5] the target is cAMP-dependent protein kinase (PKA) (Homo sapiens, UniProt P17612). In words: Inhibition of homologous protein kinase PKA. The class given is biochemical. Particulars: micromolar concentrations.
A further assay addresses T2, intracellular PKCα (Mus musculus, UniProt P20444).
T2 construct: endogenous in cells; host or cells: murine melanoma B16 F10 cells
In words: Photoinduced inactivation of intracellular PKC activity in melanoma cells (DECA analogue plus longwave UV). Format: cell-based, murine. The settings on record: B16 F10 cells; for inhibition at 0.25 µM: 250 nM, 1 h, plus UV irradiation 5 min. The procedure: as §1
Inactivation of PKCα in Murine Melanoma Cells with Ultraviolet Radiation and DECA Analogues
Murine melanoma B16 F10 cells were cultured in 15 cm^2 dishes to 75-80% confluence in RPMI medium containing 10% fetal bovine serum, 1% penicillin/streptomycin, and 0.125 μg/ml fungizone. Prior to drug application, cells were washed twice with phosphate buffered saline (PBS) and were restored in serum-free medium containing either DMSO (0.1% v/v) or 250 nM C12-, C14-, or C16-DECA analogue. Monolayers of cells were treated with or without the indicated DECA analogue for 1 h and irradiated for 5-min (1200 μW/cm^2) with a UV lamp (American Ultraviolet Co., Murray Hill, N.J.). Following this treatment, the medium was removed and the cells were washed twice with PBS. Preparation of cell lysates was followed by partial purification by DEAE-Sephacel chromatography, as previously described^2.
A confluent monolayer of cells was washed twice with PBS and the indicated concentration of DECA analogue was added to the cells in serum-free medium. Cells were treated with or without the drug for 1 h at 37° C., 5% CO2, followed by washing with PBS. In PBS and with the lids off, cells were irradiated with longwave UV light for 5-min (1200 μW/cm^2). […]

Assay [6] deals with calmodulin-dependent myosin light chain kinase. As to the kind of experiment: Inhibition of homologous protein kinase MLCK. Format: biochemical. Particulars: micromolar concentrations.
The next assay has as its system B16F10 cells. As to the kind of experiment: Experimental metastasis in mice (B16F10 tail vein injection, pulmonary nodules). The settings on record: 5 mg/kg IP every other day for 2 weeks, versus vehicle. Format: in vivo, C57BL/6 mice. The procedure:
In preparation for tail vein injections, mice were tranquilized with 0.2 mg of acepromazine via i.p. injections. B16F10 cells obtained from ex-vivo culture were injected into the tail vein (10^5 cells/0.2 ml). Animals were treated IP with vehicle (0.36% sodium citrate) or 5 mg/kg of C14-DECA on the day of the tail vein injection and every other day thereafter for a 2-3 week experiment. At the end of the experimental period, the mice were sacrificed by CO2 asphyxiation. The lungs were removed and placed in 10% formalin until the metastatic nodules were counted using a dissecting microscope.

Several values for one entry are separate records, joined by “and”; a condition that tells them apart may be missing. Identical values can stand only once.

Chain of pp60src tyrosine protein kinase (P12931 whole entry): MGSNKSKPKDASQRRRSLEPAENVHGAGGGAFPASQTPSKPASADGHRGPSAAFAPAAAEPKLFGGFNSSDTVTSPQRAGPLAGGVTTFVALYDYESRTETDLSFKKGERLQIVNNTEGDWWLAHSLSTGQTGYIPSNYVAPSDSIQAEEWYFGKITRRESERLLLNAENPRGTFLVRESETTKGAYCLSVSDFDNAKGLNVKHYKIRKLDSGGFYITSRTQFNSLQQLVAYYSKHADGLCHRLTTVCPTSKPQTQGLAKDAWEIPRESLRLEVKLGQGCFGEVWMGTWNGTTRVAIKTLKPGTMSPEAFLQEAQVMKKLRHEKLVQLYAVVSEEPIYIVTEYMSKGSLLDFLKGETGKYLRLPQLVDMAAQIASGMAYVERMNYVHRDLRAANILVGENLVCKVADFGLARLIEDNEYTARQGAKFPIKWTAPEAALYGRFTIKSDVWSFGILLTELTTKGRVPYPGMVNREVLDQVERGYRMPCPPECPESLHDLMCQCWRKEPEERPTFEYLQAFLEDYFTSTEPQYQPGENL

For the compound `Cc1cc(N)c2ccccc2[n+]1CCCCCCCCCC[n+]1c(C)cc(N)c2ccccc21` [Compound 1c, quinolinium, 1,1′-(1,10-decanediyl)bis(4-amino-2-methyldiiodide)], the “sensitivity of pp60src tyrosine protein kinase to inhibition” value in [1] is recorded as “insensitive”. Also, the “loss of cell motility” value in assay [2] amounted to 33%. Further, the “inhibition of cell migration” value in assay [3] is on record as 20-30%. Moreover, the IC50 in assay [4] was 10 to 14 µM; on Recombinant human PKCα it was 11 µM and 11 to 12 µM. For the same compound, in [5], the “sensitivity of PKA to inhibition” value is given as “insensitive”. Further, the inhibition (commonly the drop in the measured response relative to a control, in per cent) at 0.25 µM at intracellular PKCα came to 35%. Besides, the “sensitivity of calmodulin-dependent myosin light chain kinase to inhibition” value in [6] is “insensitive”.

Take `Cc1cc(N)c2ccccc2[n+]1CCCCCCCCCCCCCCCC[n+]1c(C)cc(N)c2ccccc21` [Compound 1f, 1,1′-(1,16-Hexadecanediyl)bis[4-amino-2-methyl]quinolinium, diiodide]: on Recombinant human PKCα, the “fold stronger inhibitory potency compared with C6-DECA (1a)” value came out at 20 fold; the “fold stronger inhibitory potency than 1c” value is reported as 4 fold; the IC50 was 2.6 µM and 2.8 µM.

As to `Cc1cc(N)c2ccccc2[n+]1CCCCCCCC[n+]1c(C)cc(N)c2ccccc21` [Compound 1b], the IC50 at Recombinant human PKCα is 25 ± 9 µM.

On to `Cc1cc(N)c2ccccc2[n+]1CCCCCCCCCCCCCC[n+]1c(C)cc(N)c2ccccc21` [Compound 1e, 1,1′-(1,14-Tetradecanediyl)bis[4-amino-2-methyl]quinolinium, diiodide], for which the “inhibition of cell migration” value in assay [3] is given as 40-60%. In addition, in assay [3] (range of 0-500 nM), the “concentration dependence of inhibition of cell migration” value is given as “dose-dependent”. For the same compound, on Recombinant human PKCα, the “fold stronger inhibitory potency compared with C6-DECA (1a)” value was 20 fold; the “fold stronger inhibitory potency than 1c” value was 4 fold; the IC50 was 2.6 µM and 2.5 µM. Besides, the “inhibition of intracellular PKC activity without UV” value at intracellular PKCα (250 nM alone, no UV) was “no inhibitory effect”. Moreover, the inhibition at 0.25 µM on intracellular PKCα lay in the range of 40 to 60%. The same compound showed a fewer pulmonary nodules with B16F10 cells of 40%.

With `Cc1cc(N)c2ccccc2[n+]1CCCCCC[n+]1c(C)cc(N)c2ccccc21` [Compound 1a], the IC50 at Recombinant human PKCα is 54 µM.

As to `CCCCCCCCCC[n+]1c(C)cc(N)c2ccccc21` [Compound 2, N-Decyl-4-aminoquinaldinium iodide], the IC50 on Recombinant human PKCα is 117 ± 8 µM.

Regarding `Cc1cc(N)c2ccccc2[n+]1C` [Compound 3], the IC50 at Recombinant human PKCα is 3590 ± 510 µM.

As for `Cc1cc(N)c2ccccc2[n+]1CCCCCCCCCCCC[n+]1c(C)cc(N)c2ccccc21` [Compound 1d, 1,1′-(1,12-Dodecanediyl)bis[4-amino-2-methyl]quinolinium, diiodide], the IC50 on Recombinant human PKCα is 5 ± 2 µM.

(Values after US6974871B2, “Dequalinium analogs” (priority 2000, dated 2005).)
